Assay results taken from article PMC6234094 (Bioorganic & medicinal chemistry, 2018).

Columns and labels:
QscR [1] = molecular target: T1, QscR (Pseudomonas aeruginosa, UniProt G3XD77); test: QscR agonism, E. coli JLD271; type: cell-based; details: for Reduction in potency relative to OdDHL (1) in QscR: ratio of EC50 to that of OdDHL, QscR reporter; for QscR agonism, result in words: E. coli QscR reporter
LasR [2] = details: cited from earlier work
LasR [3] = molecular target: T2, LasR (Pseudomonas aeruginosa, UniProt P25084); test: LasR agonism, E. coli JLD271; type: cell-based; details: for Loss in potency (EC50) relative to OdDHL (1) in LasR: ratio of EC50 to that of OdDHL, LasR reporter
QscR [4] = molecular target: T1, QscR; test: QscR antagonism in competition with OdDHL, E. coli reporter assay; type: cell-based
LasR [5] = molecular target: T2, LasR; test: LasR antagonism in competition with OdDHL, E. coli reporter assay; type: cell-based; details: dose response in competition against OdDHL (1)
QscR [6] = molecular target: T1, QscR; details: cited from earlier work

T2 sequence (P25084 whole entry): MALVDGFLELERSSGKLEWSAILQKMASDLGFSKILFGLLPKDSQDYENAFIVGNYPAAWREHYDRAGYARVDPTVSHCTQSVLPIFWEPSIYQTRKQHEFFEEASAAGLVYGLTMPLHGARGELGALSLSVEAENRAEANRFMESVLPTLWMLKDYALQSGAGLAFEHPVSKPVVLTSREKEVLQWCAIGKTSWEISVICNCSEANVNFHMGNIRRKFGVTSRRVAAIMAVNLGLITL

SMILES	Reduction in potency relative to OdDHL (1) in QscR (QscR [1])	Loss in potency (EC50) relative to OdDHL (1) in LasR (LasR [3])	LasR agonism, result in words (earlier report) (LasR [2])	QscR agonism, result in words (QscR [1])	other results
CCCCCCCCCC(=O)CC(=O)N[C@H]1CCNC1=O [Compound 4]	> 200 fold	10–20 fold			Potency in LasR relative to OdDHL based on EC50 (earlier report) (LasR [2]; less potent than OdDHL): about 100 fold
CCCCCCCCCC(=O)CC(=O)NC1CCCC1 [Compound 6]	24 fold	100 fold	some agonistic activity		
CCCCCCCCCC(=O)CC(=O)O[C@H]1CCOC1=O [Compound 11]					IC50 (QscR [4]): > 250 µM
CCCCCCCCCC(=O)CC(=O)NCC1CCCO1 (centres unmarked) [Compound 9]				negligible activity	IC50 (QscR [4]): > 250 µM
CCCCCCCCCC(=O)CC(=O)N[C@H]1CCSC1=O [Compound 3]	five-fold less potent		agonize LasR comparably to OdDHL		
CCCCCCCCCC(=O)CC(=O)N[C@H]1CCCC1=O [Compound 5]	~ 55 fold	10–20 fold	retained agonistic activity in LasR but was not nearly as potent as OdDHL		
CCCCCCCCCC(=O)CC(=O)N[C@H]1CCOC1 [Compound 7]		600 fold			
CCCCCCCCCCCS(=O)(=O)N[C@H]1CCOC1=O [Compound 10]				weak agonistic activity	LasR antagonism, result in words (LasR [5]): failed to antagonize LasR; LasR activity, result in words (earlier report) (LasR [2]): inactive; LasR agonism, result in words (LasR [3]; E. coli LasR reporter): inactive; QscR activity, result in words (earlier report) (QscR [6]): mild agonist
CCCCCCCCCC(=O)CC(=O)N[C@H]1CCO[C@@H]1O [Compound 8]		~ 1200 fold		very weak QscR agonist	Concentration at which LasR is agonized (earlier report) (LasR [2]; only at very high concentrations): 400 µM
